Data published in patent US5302602A, “Tricyclic thromboxane A2 antagonists” (Kyowa Hakko Kogyo Co., Ltd., priority 1987, dated 1994).
Like-named read-outs stand apart in the source and are kept apart here.

Key:
[1] = tested on: guinea pig platelets (TXA2/prostaglandin H2 receptor); assay: Test on anti-platelet activity (TXA2 antagonizing test): inhibition of U-46619-induced platelet aggregation; format: cell-based; conditions: Cavia porcellus, 0.05 h; minimum concentration inhibiting U-46619 (0.5-1 μM)-induced platelet aggregation by 30% or more; guinea pig PRP; read-out: TXA2 Antagonizing Activity (MEC), minimum effective concentration
Description: Using guinea pig platelets influence of the compounds in accordance with the present invention on platelet aggregation induced by U-46619 (9,11-dideoxy-9α,11a-methanoepoxyprostaglandin F2 α; manufactured by Cayman Chemica Co., Ltd.) which is a TXA2 /prostaglandin H2 receptor stimulant was examined.
Male guinea pig (Hartley strain; body weight, 300 to 600 g) was anesthesized by intraperitoneal administration of sodium pentobarbital (30 mg/kg) and blood was collected from the descending aorta of the abdomen with a 1/10 volume of sodium citrate. By centrifugation (KC-70: manufactured by Kubota Co., Ltd.) at 800 rpm for 10 minutes, platelet rich plasma (PRP) was collected. Platelet aggregation induced by U-46619 (0.5-1 μM) was determined by photometry [Born, G.V.R. et al., Nature (London), 194, 927-929 (1962)]. A test compound was pretreated 3 minutes prior to aggregation induction and ability of inhibiting aggregation was measured. The minimum concentration for inhibiting platelet aggregation by 30% or more was defined as the minimum effective concentration (MEC) of the test compound.

[2] = tested on: homologous passive cutaneous anaphylaxis (PCA); assay: Antiallergic activity test: homologous passive cutaneous anaphylaxis (PCA) test for 48 hours using rats; format: in vivo, rat (Wistar strain, male); conditions: Rattus norvegicus, po, minimum dose with at least one of 3 rats showing PCA inhibition rate 50% or more, read-out: Antiallergic Activity (MED), minimum effective dose
Description: Antiallergic activity was examined in accordance with the passive cutaneous anaphylaxis (PCA) test using rats. As test animals, Wistar strain male rats weighing 180 to 220 g were used to collect antiserum and for the PCA test, Wistar strain male rats weighing 120 to 140 g were used.
Anti-EWA rat serum was prepared according to the method of Stotland and Share [Can. J. Physiol. Pharmacol., 52, 1114 (1974)]. That is, 1 mg of EWA was mixed with 20 mg of aluminum hydroxide gel and 0.5 ml of pertussis-diphtberia-tetanus mixed vaccine. The mixture was subcutaneously administered to the rat paw in 4 portions. Fourteen days after, blood was collected from the carotid artery and the serum was isolated and stored in a state frozen at -80° C. Titer of this antiserum to homologous PCA for 48 hours was 1:32.
Three rats were used per group. After the hair at the back was cut, 0.05 ml each of anti-EWA rat serum diluted to 8-fold with physiological saline was intracutaneously injected to each rat at the back in 2 places to passively sensitize the rat. A test compound or its solution (physiological saline solution or CMC solution) was orally administered 47 hours after and 0.5 ml/100 g of 1% Evans Blue physiological saline containing 2 mg of antigen EWA was then intravenously administered to the tail vein an hour after the administration. Thirty minutes later, the animal was bled to death. The skin was peeled off and a leaked dye amount at the blue dyed portion was measured according to the method of Katayama et al. [Microbiol. Immunol., 22, 89 (1978)]. That is, the blue dyed portion was cut off with scissors, put into a test tube charged with 1 ml of 1 N potassium hydroxide and incubated at 37° C. for 24 hours. After 9 ml of a mixture of 0.6 N phosphate:acetone (5:13) was added to the system, the mixture was shaken followed by centrifugation at 2500 rpm for 10 minutes. The absorbancy of the supernatant at 620 nm was measured and the leaked dye amount was quantitatively determined by comparison with a calibration curve previously prepared. A value of one rat was obtained from a mean value of the two portions and an inhibition rate-of each rat was calculated according to the following equation. [formula]
The case showing that the inhibition rate is 50% or more is judged to be positive in the PCA inhibition activity and the minimum dose in which at least one out of 3 rats was recognized to be positive was defined as the minimum effective dose (MED) of the test compound.

[3] = tested on: mice; assay: Acute toxicity test; format: in vivo; conditions: mortality observed for seven days
Description: Using three dd strain male mice weighing 20±1 g, a test compound was orally (po; 300 mg/kg) or intraperitoneally (ip; 100 mg/kg) administered. MLD (the minimum lethal dose) was determined by observing the mortality for seven days after administration.

[4] = target: T1, histamine H1 receptor (Cavia porcellus, UniProt P31389); assay: Binding study using 3H-pyrilamine (histamine H1 receptor binding); design: species or system guinea pig; conditions: read-out: (%) Inhibition (3H-pyrilamine binding)
T1 construct: from tissue; host or cells: guinea pig cerebellum membranes
Description: Receptor binding was determined by the method of chang et al. [J. Neurochem., 32, 1953 (1979)].
The cerebellum of guinea pig was suspended in a 40-fold amount (V/W) of chilled 50 mM phosphate buffer (pH 7.5) with Polytron Homogenizer (Kinematica Co., Ltd.). The suspension was centrifuged (35,500×g, 10 minutes). The resulting precipitates were resuspended in an equal amount of fresh buffer followed by centrifugation. A 100-fold amount (V/W) of chilled buffer was added to the final precipitates.
To 1 ml of the membrane suspension adjusted as described above were added 50 μl of tritium-labeled pyrilamine (^3 H-pyrilamine; NEN Co., Ltd.) and 50 μl of a test compound. The mixture was allowed to stand at 25° C. for 30 minutes, 4 ml of chilled buffer was added thereto. The mixture was rapidly filtered through a glass fiber filter (GF/C; Whatman). The filter paper was further washed three times with 5 ml of buffer. Hereafter procedures were performed in a manner similar to the TXA2 receptor binding test to determine radioactivity.
An inhibitory activity of the test compound against H1 receptor was calculated by the following equation. [formula]
Amount of the total binding is an amount of ^3 H-pyrilamine-bound radioactivity in the absence of a test compound.
The amount of non-specific binding is an amount of ^3 H-pyrilamine-bound radioactivity in the presence of 3 μM Astemizole (manufactured by Janesen Pharmaceutics).
The amount bound in the presence of a test compound is an amount of ^3 H-pyrilamine-bound radioactivity in the presence of a test compound in various concentrations.

[5] = target: T2, TXA2 receptor (Cavia porcellus, UniProt A0A286Y4I8); assay: Binding study using 3H-U46619 (TXA2 receptor binding activities test); design: species or system guinea pig; conditions: for inhibition at 1 µM: 20 min, read-out: % Inhibition (3H-U46619 binding); for inhibitory activity (TXA2 receptor binding), in words: statement in words on Table 4
T2 construct: To a washed platelet suspension (1×10^8 platelets) of guinea pig; endogenous in cells; host or cells: washed guinea pig platelets
T2 sequence (A0A286Y4I8 1-347): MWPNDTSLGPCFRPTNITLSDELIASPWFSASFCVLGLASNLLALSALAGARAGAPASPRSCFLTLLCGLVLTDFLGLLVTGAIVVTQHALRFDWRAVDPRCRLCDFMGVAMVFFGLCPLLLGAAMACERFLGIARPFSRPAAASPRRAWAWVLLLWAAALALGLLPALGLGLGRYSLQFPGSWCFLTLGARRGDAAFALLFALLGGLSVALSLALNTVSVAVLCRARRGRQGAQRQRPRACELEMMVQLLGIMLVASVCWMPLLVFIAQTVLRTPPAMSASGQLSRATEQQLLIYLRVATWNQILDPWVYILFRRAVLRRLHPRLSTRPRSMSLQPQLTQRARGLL
Description: Receptor binding was determined by a modified method of Kattelman et al. (Thrombosis Research, 41, 471 (1986)].
To a washed platelet suspension (1×10^8 platelets) of guinea pig were added 12 nM of tritium-labeled U46619 (^3 H-U46619; NEN Co., Ltd.) and a test compound (final concentration: 1 μM) solution. After keeping at 37° C. for 20 minutes, the mixture was rapidly filtered through a glass fiber filter paper (GF/C; Whatman). Immediately, the filter paper was washed 5 times with 3 ml of ice-cold 50 mM Tris-hydroxymethylaminomethane buffer (containing 100 mM sodium chloride). The glass fiber filter was transferred to a vial and a scintillator (Ex-H; manufactured by Wako Pure Chemical Industries Co., Ltd.) was added thereto. The radioactivity was determined with a liquid scintillation counter.
It is already known that ^3 H-U46619 is capable of binding with TXA2 receptor (see the publication supra). An inhibitory activity of the test compound against this binding means an ability of binding with the TXA2 receptor. It is also known that a good relationship exists between this binding activity and the anti-platelet activity (TXA2 antagonizing test).
An inhibitory activity (binding activity) of the test compound was calculated by the following equation. [formula]
Amount of the total binding is an amount of ^3 H-U46619-bound radioactivity in the absence of a test compound.
The amount of non-specific binding is used to mean an amount of ^3 H-U46619-bound radioactivity in the presence of 10 μM U-46619.
The amount bound in the presence of a test compound is an amount of ^3 H-U46619-bound radioactivity in the presence of a test compound in various concentrations.

[6] = test compound 1 μM, 12 nM 3H-U46619, washed guinea pig platelets, 37° C., 20 minutes

T1 sequence (P31389 whole entry): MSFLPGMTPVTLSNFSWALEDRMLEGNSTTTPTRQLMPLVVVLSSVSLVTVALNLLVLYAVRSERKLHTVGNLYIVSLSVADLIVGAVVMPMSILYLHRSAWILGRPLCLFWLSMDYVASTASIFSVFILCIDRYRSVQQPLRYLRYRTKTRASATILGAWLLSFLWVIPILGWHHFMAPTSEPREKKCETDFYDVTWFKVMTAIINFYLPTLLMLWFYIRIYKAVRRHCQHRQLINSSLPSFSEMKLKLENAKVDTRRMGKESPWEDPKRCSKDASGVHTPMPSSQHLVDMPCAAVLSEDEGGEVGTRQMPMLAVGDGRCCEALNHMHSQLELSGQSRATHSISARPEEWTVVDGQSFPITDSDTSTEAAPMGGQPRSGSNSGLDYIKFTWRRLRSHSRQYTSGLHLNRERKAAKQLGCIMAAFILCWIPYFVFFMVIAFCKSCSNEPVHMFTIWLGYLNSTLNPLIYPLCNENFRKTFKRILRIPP

SMILES | minimal effective concentration [1] [µg/mL] | minimal effective dose [2] [mg/kg] | Acute Toxicity (MLD), minimum lethal dose ([3]; ip) [mg/kg] | Acute Toxicity (MLD), minimum lethal dose ([3]; po) [mg/kg] | inhibition at 1 µM [4] [%] | inhibition at 1 µM [5, 6] [%] | inhibitory activity (TXA2 receptor binding), in words [5] | inhibition at 1 µM [5] [%]
O=C(O)c1ccc2c(c1)C(SCCN1CCN(c3ccccc3)CC1)c1ccccc1CO2 (stereo not drawn) [Compound 1b, 11-[2-(4-Phenyl-1-piperazinyl)ethyl]thio-6,11-dihydrodibenz[b,e]oxepin-2-carboxylic acid] | 3 | 10 | > 100 | > 300 | 68 | – | – | –
O=C(O)c1ccc2c(c1)C(SCCN1CCN(c3ccc(F)cc3)CC1)c1ccccc1CO2 (stereo not drawn) [Compound 8b] | 1 | 10 | > 100 | > 300 | – | – | – | –
COc1ccccc1N1CCN(CCSC2c3ccccc3COc3ccc(C(=O)O)cc32)CC1 (stereo not drawn) [Compound 9b] | 1 | 10 | > 100 | > 300 | – | – | – | –
O=C(O)c1ccc2c(c1)C(SCCN1CCC(c3ccccc3)CC1)c1ccccc1CO2 (stereo not drawn) [Compound 37b, 11-[2-(4-Phenyl-1-piperidinyl)ethyl]thio-6,11-dihydrodibenz[b,e]oxepin-2-carboxylic acid] | 10 | 1 | > 100 | > 300 | – | – | – | –
O=C(O)c1ccc2c(c1)C(SCCN1CCC(Cc3ccccc3)CC1)c1ccccc1CO2 (stereo not drawn) [Compound 38b] | 1 | 1 | – | – | 92 | 81 | – | –
CN(C)CCSC1c2ccccc2COc2ccc(C(=O)O)cc21 (stereo not drawn) [Compound (A), reference compound] | – | – | – | – | 88 | -4 | not observed | –
CN(C)CCC=C1c2ccccc2COc2ccc(CC(=O)O)cc21 [Compound (B), reference compound] | – | – | – | – | – | 1 | not observed | –
O=C(O)c1ccc2c(c1)/C(=C/CN1CCN(c3ccc(F)cc3)CC1)c1ccccc1CO2 [Compound E-73b, (E)-11-[2-[4-(4-Fluorophenyl)-1-piperazinyl]ethylidene]-6,11-dihydrodibenz[b,e]oxepin-2-carboxylic acid.isopropanol. monohydrate] | 10 | > 100 | > 100 | > 300 | – | 85 | – | –
O=C(O)c1ccc2c(c1)/C(=C/CN1CCN(S(=O)(=O)C=Cc3ccccc3)CC1)c1ccccc1CO2 [Compound E-78b, (E)-11-[2-[4-(Styrylsulfonyl)-1-piperazinyl]ethylidene]-6,11-dihydrodibenz[b,e]oxepin-2-carboxylic acid-0.1 iso-propanol.0.1 hydrate] | 3 | > 100 | > 100 | > 300 | – | 83 | – | –
O=C(O)c1ccc2c(c1)/C(=C/CN1CCN(S(=O)(=O)c3cccs3)CC1)c1ccccc1CO2 [Compound E-79b, (E)-11-[2-[4-(2-Thienylsulfonyl)-1-piperazinyl]ethylidene]-6,11-dihydrodibenz[b,e]oxepin-2-carboxylic acid.0.5 hydrate] | 30 | > 100 | > 100 | > 300 | – | 77 | – | –
O=C(O)c1ccc2c(c1)/C(=C/CN1CCN(CC=Cc3ccccc3)CC1)c1ccccc1CO2 [E-75b', (E)-11-[3-(4-Cinnamyl-1-piperazinyl)ethylidene]-6,11-dihydrodibenz[b,e]oxepin-2-carboxylic acid.difumarate-0.5 hydrate] | 0.1 | 100 | > 100 | > 300 | – | 85 | – | –
CN1CCC(=C2c3ccccc3CC(=O)c3sccc32)CC1 [Ketotifen, reference compound] | – | – | – | – | – | – | not observed | -3
